Source: ChEMBL document CHEMBL4190400, “Identification of Potent Ebola Virus Entry Inhibitors with Suitable Properties for in Vivo Studies” (J Med Chem, 2018)
≈ marks a conversion by molar mass, not a printed value.

Experiments:
Ebolavirus [1] = assay: Antiviral activity against VSV pseudotyped Ebolavirus expressing M-GFP infected in African green monkey Vero E6 cells assessed as inhibition of viral infection pre-incubated for 2 hrs before infection and measured after 8 to 12 hrs by fluorescence microscopic method; assay type: functional, Vero C1008
[2] = Half life in mouse liver microsomes at 1 uM after 60 mins in presence of NADPH by LC-MS/MS analysis; assay type: ADME, microsome
Ebolavirus [3] = assay: Antiviral activity against recombinant VSV pseudotyped Ebolavirus expressing M-GFP infected in African green monkey Vero E6 cells assessed as inhibition of viral infection pre-incubated for 2 hrs before infection and measured after 8 to 12 hrs in presence of 50% NHS by fluorescence microscopic method; assay type: functional, Vero C1008; conditions: Orthoebolavirus, Vero C1008
Ebolavirus [4] = assay: Antiviral activity against Ebolavirus isolate Makona infected in human HeLa cells assessed as inhibition of viral infection pretreated for 2 hrs before viral infection and measured after 48 hrs by EboV GP immunostaining based method; assay type: functional, cell-based; conditions: Orthoebolavirus
physchem = conditions: phosphate buffered saline, pH 7.4
[5] = Half life in human liver microsomes at 1 uM after 60 mins in presence of NADPH by LC-MS/MS analysis; assay type: ADME, microsome

SMILES | IC50 (Ebolavirus [1]; Orthoebolavirus, Vero C1008) | also measured
O=C(CC12CC3CC(CC(C3)C1)C2)NCC(=O)N1CCN(Cc2ccccc2OCc2ccc(Br)cc2)CC1 | 220 nM | –
O=C(CC12CC3CC(CC(C3)C1)C2)NCC(=O)N1CCN(Cc2cc(F)c(F)cc2Cl)CC1 | 1450 nM | –
Nc1ccc(Cl)cc1C(=O)N1CCN(C(=O)CNC(=O)C2CC23CCC(F)(F)CC3)CC1 (racemic) | > 5000 nM | –
O=C(CC12CC3CC(CC(C3)C1)C2)NCC(=O)N1CCN(Cc2cc(Cl)ccc2O)CC1 | 200 nM | –
COC(=O)c1cccc(-c2ccc(Cl)cc2CN2CCN(C(=O)CNC(=O)CC34CC5CC(CC(C5)C3)C4)CC2)c1 | 250 nM | –
COC(=O)c1ccc(COc2ccc(F)cc2CN2CCN(C(=O)CNC(=O)CC3CCC(F)(F)CC3)CC2)cc1 | 18 nM | –
O=C(CC1CCC(F)(F)CC1)NCC(=O)N1CCN(Cc2cc(Cl)cc(F)c2O)CC1 | 2800 nM | –
COC(=O)c1ccc(COc2ccccc2CN2CCN(C(=O)CNC(=O)CC34CC5CC(C3)CC(C(=O)O)(C5)C4)CC2)cc1 | > 2000 nM | –
[2H]C([2H])(c1cc(Cl)ccc1N)N1CCN(C(=O)CNC(=O)C2CC23CCC(F)(F)CC3)CC1 (stereo in doubt; 3-19) | – | IC50 (Ebolavirus [1]; vero c1008): 180 nM
O=C(CC1CCC(F)(F)CC1)NCC(=O)N1CCN(Cc2cc(Br)ccc2O)CC1 | 790 nM | –
O=C(CC12CC3(F)CC(F)(CC(F)(C3)C1)C2)NCC(=O)N1CCN(Cc2ccccc2OCc2ccc(Br)cc2)CC1 | 200 nM | half-life at 1 µM [2]: 1 min
COC(=O)c1ccc(COc2ccc(C#N)cc2CN2CCN(C(=O)CNC(=O)CC34CC5CC(CC(C5)C3)C4)CC2)cc1 | 50 nM | –
O=C(CC1CCC(F)(F)CC1)NCC(=O)N1CCN(Cc2cc(Cl)ccc2NC(=O)C2CC2)CC1 | 3500 nM | –
COC(=O)c1ccc(Oc2cc(Cl)cc(CN3CCN(C(=O)CNC(=O)CC45CC6CC(CC(C6)C4)C5)CC3)c2)cc1 | 16 nM | –
Nc1ccc(Br)cc1CN1CCN(C(=O)CNC(=O)CC2CCC(F)(F)CC2)CC1 | 1740 nM | –
COC(=O)c1ccc(COc2ccc(Cl)cc2CN2CCN(C(=O)CNC(=O)CC3CCC(F)(F)CC3)CC2)cc1 | 15 nM | –
CNS(=O)(=O)c1ccc(COc2ccccc2CN2CCN(C(=O)CNC(=O)CC34CC5CC(CC(C5)C3)C4)CC2)cc1 | 300 nM | –

SMILES | IC50 (Ebolavirus [1]; Orthoebolavirus, Vero C1008) | also measured
COC(=O)c1ccc(CCc2ccccc2CN2CCN(C(=O)CNC(=O)CC34CC5CC(CC(C5)C3)C4)CC2)cc1 | 20 nM | –
O=C(CC12CC3CC(CC(C3)C1)C2)NCC(=O)N1CCN(Cc2cc(Cl)cc(Cl)c2Cl)CC1 | 430 nM | –
NS(=O)(=O)c1ccc(COc2ccccc2CN2CCN(C(=O)CNC(=O)CC34CC5CC(CC(C5)C3)C4)CC2)cc1 | 350 nM | –
O=C(CC12CC3CC(CC(C3)C1)C2)NCC(=O)N1CCN(Cc2cc(Cl)ccc2F)CC1 | 360 nM | –
CCC1(CC)CC1C(=O)NCC(=O)N1CCN(Cc2cc(Cl)ccc2N)CC1 (racemic) | 160 nM | –
O=C(CC12CC3CC(CC(C3)C1)C2)NCC(=O)N1CCN(Cc2c(F)ccc(Cl)c2F)CC1 | 1350 nM | –
O=C(CC12CC3CC(CC(C3)C1)C2)NCC(=O)N1CCN(Cc2cc(Cl)ccc2C(F)(F)F)CC1 | > 2000 nM | –
COC(=O)c1ccc(COc2ccc(F)cc2CN2CCN(C(=O)CNC(=O)CC34CC5CC(CC(C5)C3)C4)CC2)cc1 | 1.4 nM | –
COC(=O)c1ccc(COc2ccc(Br)cc2CN2CCN(C(=O)CNC(=O)CC34CC5CC(CC(C5)C3)C4)CC2)cc1 | 9 nM | –
COC(=O)c1ccc(COc2ccccc2CN2CCN(C(=O)CNC(=O)CC3CC(F)(F)C3)CC2)cc1 | 300 nM | –
COC(=O)c1ccc(COc2ccc(Cl)cc2CN2CCN(C(=O)CNC(=O)C(F)(F)C(F)F)CC2)cc1 | 160 nM | –
Nc1ccc(C2CC2)cc1CN1CCN(C(=O)CNC(=O)C2CC23CCC(F)(F)CC3)CC1 (racemic) | 4200 nM | –
COC(=O)c1ccc(COc2ccccc2CN2CCN(C(=O)CNC(=O)CC34CC5CC(CC(C5)C3)C4)CC2)cc1 | 13 nM | IC50 (Ebolavirus [3]): 64 nM; EC50 (Ebolavirus [4]): 160 nM; solubility kinetic (physchem): 5.3 µM (≈ 3.04 µg/mL); half-life at 1 µM [2]: 1 min; half-life at 1 µM [5]: 1.2 min
O=C(CC12CC3CC(CC(C3)C1)C2)NCC(=O)N1CCN(Cc2cc(Cl)cc(F)c2F)CC1 | 670 nM | –
O=C(CC12CC3CC(C1)CC(c1ccccc1)(C3)C2)NCC(=O)N1CCN(Cc2ccccc2OCc2ccc(Br)cc2)CC1 | 700 nM | –
Nc1ccc(Cl)cc1CN1CCN(C(=O)CNC(=O)C2CC23CCCC3)CC1 (racemic) | 240 nM | –
